Paper PMC4984800, “A first in man, dose-finding study of the mTORC1/mTORC2 inhibitor OSI-027 in patients with advanced solid malignancies” (British Journal of Cancer, 2016)
pIC50: −log10 of the molar value. “Also recorded” adds a separate entry of the source. Like-named read-outs stand apart in the source and are kept apart here.

Key:
[1] = First-in-human trial: pharmacokinetics in plasma and urine; assay type: in vivo; details: for AUC(0-t): read-out: AUC24hr
Experimental: Blood and urine samples were collected at prespecified time points for 24 h after initial dose and at days 2–3 (S2) and after multiple doses on days 3–4 (S1) and 22–23 (S3) across dose levels. Predose samples were collected on days 8, 15 and 22. Urine samples were collected during cycle 1.
(§1) Descriptive statistics were used to summarise the safety data, including all patients who received at least one dose of OSI-027. All patients who completed the pharmacokinetic sampling were included in the PK analyses, which used descriptive statistics to summarise AUC0–∞, AUC0–t, Cmax, Clast, Tmax, Tlast, %AUC extrapolated, T1/2, clearance (Cl/F) and volume of distribution (Vz/F). Exploratory analysis were planned to correlate pharmacodynamics and pharmacokinetics. Response to treatment was evaluated according to Response Evaluation Criteria in Solid Tumors (RECIST) ([Therasse et al, 2000]).

advanced solid tumours = assay: Preliminary antitumour activity (RECIST); assay type: in vivo, human
Experimental: as §1, with “Assessments by imaging techniques (CT and/or MRI) were performed every 8–12 weeks or earlier if clinically indicated. Descriptive” for “Descriptive”

tumour cell lines = test system: tumour cell lines; parameters: method as in Bhagwat et al, 2011; Falcon et al, 2011; details: including models resistant to rapalogues, ref Bhagwat et al, 2011, Falcon et al, read-out: IC50 values in a broad panel of tumour cell lines; cited from earlier work
[2] = human, plasma, oral, 40 mg, Schedule 3, 40mg, Day 1, N=6, median (range)
[3] = human, plasma, oral, 40 mg, Schedule 3, 40mg, Day 22, N=4, median (range)
[4] = human, plasma, oral, 45 mg, Schedule 1, 45 mg, Day 1, N=3, median (range)
[5] = human, plasma, oral, 45 mg, Schedule 1, 45 mg, Day 3, N=3, median (range)
[6] = human, plasma, oral, 50 mg, Schedule 3, 50 mg, Day 1, N=3, median (range)
[7] = human, plasma, oral, 50 mg, Schedule 3, 50 mg, Day 22, N=1
[8] = human, plasma, oral, 65 mg, Schedule 1, 65 mg, Day 1, N=3, median (range)
[9] = human, plasma, oral, 65 mg, Schedule 1, 65 mg, Day 3, N=3, median (range)
[10] = human, plasma, oral, 80 mg, Schedule 2, 80 mg, N=4, median (range)
[11] = human, plasma, oral, 90 mg, Schedule 1, 90 mg, Day 1, N=14, median (range)
[12] = human, plasma, oral, 90 mg, Schedule 1, 90 mg, Day 3, N=14, median (range)
[13] = human, plasma, oral, 120 mg, Schedule 1, 120 mg, Day 1, N=14, median (range)
[14] = human, plasma, oral, 120 mg, Schedule 1, 120 mg, Day 3, N=13, median (range)
[15] = human, plasma, oral, 160 mg, Schedule 1, 160 mg, Day 1, N=5, median (range)
[16] = human, plasma, oral, 160 mg, Schedule 1, 160 mg, Day 3, N=5, median (range)
[17] = human, plasma, oral, 160 mg, Schedule 2, 160 mg, N=3, median (range)
[18] = human, plasma, oral, 240 mg, Schedule 2, 240mg, N=15, median (range)
[19] = metastatic colorectal cancer, S3–10 mg

COc1cccc2cc(-c3nc([C@H]4CC[C@H](C(=O)O)CC4)n4ncnc(N)c34)[nH]c12 [OSI-027]
half-life ([1]; human, plasma, oral, 40 mg, Schedule 2, 40 mg, N=3, median (range), read-out: T1/2 (converted)): 12.4 h
AUC(0-inf) [1, 2]: 77100 ng·h/mL
Cmax [1, 2]: 3140 ng/mL
half-life ([1]; human, plasma, oral, 40 mg, Schedule 3, 40mg, Day 1, N=6, median (range), read-out: T1/2 (converted)): 17.8 h
Cmax [1, 3]: 3000 ng/mL
AUC(0-t) [1, 3]: 50100 ng·h/mL
half-life ([1]; human, plasma, oral, 40 mg, Schedule 3, 40mg, Day 22, N=4, median (range), read-out: T1/2 (converted)): 15.9 h
AUC(0-inf) [1, 4]: 31100 ng·h/mL
Cmax [1, 4]: 2770 ng/mL
half-life ([1]; human, plasma, oral, 45 mg, Schedule 1, 45 mg, Day 1, N=3, median (range), read-out: T1/2 (converted)): 7.65 h
Cmax [1, 5]: 3850 ng/mL
AUC(0-t) [1, 5]: 35200 ng·h/mL
half-life ([1]; human, plasma, oral, 45 mg, Schedule 1, 45 mg, Day 3, N=3, median (range), read-out: T1/2 (converted)): 9.14 h
AUC(0-inf) [1, 6]: 46200 ng·h/mL
Cmax [1, 6]: 3040 ng/mL
half-life ([1]; human, plasma, oral, 50 mg, Schedule 3, 50 mg, Day 1, N=3, median (range), read-out: T1/2 (converted)): 10.3 h
Cmax [1, 7]: 1110 ng/mL
AUC(0-t) [1, 7]: 17200 ng·h/mL
AUC(0-inf) [1, 8]: 50000 ng·h/mL
Cmax [1, 8]: 4750 ng/mL
half-life ([1]; human, plasma, oral, 65 mg, Schedule 1, 65 mg, Day 1, N=3, median (range), read-out: T1/2 (converted)): 7.01 h
Cmax [1, 9]: 5550 ng/mL
AUC(0-t) [1, 9]: 64400 ng·h/mL
half-life ([1]; human, plasma, oral, 65 mg, Schedule 1, 65 mg, Day 3, N=3, median (range), read-out: T1/2 (converted)): 8.46 h
AUC(0-inf) [1, 10]: 52600 ng·h/mL
Cmax [1, 10]: 3890 ng/mL
half-life ([1]; human, plasma, oral, 80 mg, Schedule 2, 80 mg, N=4, median (range), read-out: T1/2 (converted)): 9.22 h
AUC(0-inf) [1, 11]: 90300 ng·h/mL
Cmax [1, 11]: 5440 ng/mL
half-life ([1]; human, plasma, oral, 90 mg, Schedule 1, 90 mg, Day 1, N=14, median (range), read-out: T1/2 (converted)): 12.1 h
Cmax [1, 12]: 7010 ng/mL
AUC(0-t) [1, 12]: 69600 ng·h/mL
half-life ([1]; human, plasma, oral, 90 mg, Schedule 1, 90 mg, Day 3, N=14, median (range), read-out: T1/2 (converted)): 12 h
AUC(0-inf) [1, 13]: 87600 ng·h/mL
Cmax [1, 13]: 5590 ng/mL
half-life ([1]; human, plasma, oral, 120 mg, Schedule 1, 120 mg, Day 1, N=14, median (range), read-out: T1/2 (converted)): 10.2 h
Cmax [1, 14]: 5450 ng/mL
AUC(0-t) [1, 14]: 54500 ng·h/mL
half-life ([1]; human, plasma, oral, 120 mg, Schedule 1, 120 mg, Day 3, N=13, median (range), read-out: T1/2 (converted)): 12.8 h
AUC(0-inf) [1, 15]: 131000 ng·h/mL
Cmax [1, 15]: 9330 ng/mL
half-life ([1]; human, plasma, oral, 160 mg, Schedule 1, 160 mg, Day 1, N=5, median (range), read-out: T1/2 (converted)): 10.3 h
Cmax [1, 16]: 11000 ng/mL
AUC(0-t) [1, 16]: 106000 ng·h/mL
half-life ([1]; human, plasma, oral, 160 mg, Schedule 1, 160 mg, Day 3, N=5, median (range), read-out: T1/2 (converted)): 11.9 h
AUC(0-inf) [1, 17]: 267000 ng·h/mL
Cmax [1, 17]: 7620 ng/mL
half-life ([1]; human, plasma, oral, 160 mg, Schedule 2, 160 mg, N=3, median (range), read-out: T1/2 (converted)): 24.7 h
AUC(0-inf) [1, 18]: 125000 ng·h/mL
Cmax [1, 18]: 8780 ng/mL
half-life ([1]; human, plasma, oral, 240 mg, Schedule 2, 240mg, N=15, median (range), read-out: T1/2 (converted)): 13.8 h
half-life ([1]; human, plasma, oral, patients, estimate, based on the weekly dose schedule, read-out: half-life (converted)): ~14 h
half-life ([1]; human, plasma, oral, patients, range over groups, read-out: half-life, range): 8 to 25 h
Tmax ([1]; human, plasma, oral, patients, across dose levels): ≤ 4 h
exposure versus dose ([1]; patients): dose proportional
urinary excretion of unchanged OSI-027, range ([1]; patients): 1–7%
half-life ([1]; patients, estimate, based on the weekly dose schedule): 14 h
patients with stable disease at first follow-up radiological assessment (advanced solid tumours; 8–12 weeks): 29.7%
RECIST responses (complete or partial) (advanced solid tumours; all patients): No RECIST responses were recorded; also recorded: No complete or partial responses were observed
patients free of progression for ⩾24 weeks (advanced solid tumours; all patients): six
patients with stable disease >6 months (advanced solid tumours; all patients): 5%
reduction in the sum of target lesions diameters, single patient (advanced solid tumours; metastatic GIST, S1–120 mg): 20%
time on therapy, single patient (advanced solid tumours; metastatic GIST, S1–120 mg): 45 weeks
reduction in the size of the lesions, single patient (advanced solid tumours; [19]): 18%
time on treatment, single patient (advanced solid tumours; [19]): 49 weeks
time free of progression, single patient (advanced solid tumours; metastatic uveal melanoma, S3–35 mg): 48 weeks
pIC50 (tumour cell lines): > 5.00
